{"source": "patent US10676459B2", "about": "“Antifungal compounds and processes for making” (MYCOVIA PHARMACEUTICALS INC., priority 2015, dated 2020)", "key": {"[1]": {"assay": "Gravimetric Vapor Sorption (GVS) isotherm and XRPD post GVS", "type": "physicochemical", "description": "Gravimetric Vapor Sorption (GVS) isotherms were obtained using a SMS DVS Intrinsic moisture sorption analyser, controlled by DVS Intrinsic Control software v1.0.1.2 (or v 1.0.1.3). The sample temperature was maintained at 25° C. by the instrument controls. The humidity was controlled by mixing streams of dry and wet nitrogen, with a total flow rate of 200 mL/min. The relative humidity was measured by a calibrated Rotronic probe (dynamic range of 1.0-100% RH), located near the sample. The weight change, (mass relaxation) of the sample as a function of % RH was constantly monitored by the microbalance (accuracy ±0.005 mg). Typically 5-20 mg of sample was placed in a tared mesh stainless steel basket under ambient conditions. The sample was loaded and unloaded at 40% RH and 25° C. (typical room conditions). A moisture sorption isotherm was performed as outlined below (2 scans giving 1 complete cycle). The standard isotherm was performed at 25° C. at 10% RH intervals over a 0-90% RH range. Data analysis was undertaken in Microsoft Excel using DVS Analysis Suite v6.2 (or 6.1 or 6.0).\nMethod Parameters for SMS DVS Intrinsic Experiments\nThe sample was recovered after completion of the isotherm and re-analysed by XRPD."}, "[2]": {"assay": "Human multiple-dose pharmacokinetic comparison", "type": "in vivo", "conditions": "for Cmax / Tmax: in vivo", "description": "Human Pharmacokinetic Comparison of Compound 1 X-Hydrate and Compound 1 Anhydrous Form\nTable 6 compares human multiple-dose pharmacokinetic (PK) parameters between dosing with Compound 1 X-hydrate and Compound 1 Anhydrous form. Compound 1 X-hydrate was dosed at 600 mg twice daily (bid) for three days followed by dosing at 300 mg once daily (qd) for 10 days. Compound 1 Anhydrous form was dosed at 300 mg qd for 14 days."}, "[3]": {"assay": "Solubility and pH of saturated solution", "type": "physicochemical"}, "[4]": {"assay": "XRPD stability post 2 weeks storage at temperature and humidity", "type": "physicochemical", "description": "X-Ray Powder Diffraction patterns were collected on a Bruker AXS C2 GADDS diffractometer using Cu Kα radiation (40 kV, 40 mA), automated XYZ stage, laser video microscope for auto-sample positioning and a Hi Star 2-dimensional area detector. X-ray optics consists of a single Göbel multilayer mirror coupled with a pinhole collimator of 0.3 mm. A weekly performance check is carried out using a certified standard NIST 1976 Corundum (flat plate). The beam divergence, i.e. the effective size of the X-ray beam on the sample, was approximately 4 mm. A Θ-Θ continuous scan mode was employed with a sample-detector distance of 20 cm which gives an effective […] of 3.2°-29.7°. Typically the sample would be exposed to the X-ray beam for 120 seconds. The software used for data collection was GADDS for XP/2000 4.1.43 and the data were analysed and presented using Diffrac Plus EVA v13.0.0.2 or v15.0.0.0. […]\nX-Ray Powder Diffraction patterns were also collected on a Bruker D8 diffractometer using Cu Kα radiation (40 kV, 40 mA), 0-20 goniometer, and divergence of V4 and receiving slits, a Ge monochromator and a Lynxeye detector. […] The software used for data collection was Diffrac Plus XRD Commander v2.6.1 and the data were analysed and presented using Diffrac Plus EVA v13.0.0.2 or v15.0.0.0. […]"}, "[5]": {"conditions": "300 mg qd for 14 days vs X-hydrate 600 mg bid for three days then 300 mg qd for 10 days"}, "[6]": {"conditions": "600 mg bid loading dose for 3 days, then 300 mg qd maintenance for 10 days"}}, "data": [{"compound": "O[C@@](Cn1cnnn1)(c1ccc(F)cc1F)C(F)(F)c1ccc(-c2ccc(OCC(F)(F)F)cc2)cn1", "note": "[Compound 1 Anhydrous]", "values": [{"measurement": "GVS water uptake at 90% RH", "setting": "[1]; 25° C., listed as Anhydrous 1", "value": 0.14, "unit": "% w/w water uptake at"}, {"measurement": "AUC0-8 h", "setting": "[2]; 300 mg qd for 14 days", "value": 35653, "unit": "ngh/mL"}, {"measurement": "area-under-the-curve (AUC) compared with Compound 1 X-hydrate", "setting": "[2]; [5]", "value": "higher"}, {"measurement": "maximal concentration (Cmax) compared with Compound 1 X-hydrate", "setting": "[2]; [5]", "value": "higher"}, {"measurement": "Cmax", "setting": "[2]; 300 mg qd for 14 days", "value": 4690, "unit": "ng/mL"}, {"measurement": "Tmax", "setting": "[2]; 300 mg qd for 14 days", "value": 5, "unit": "h"}, {"measurement": "pH of saturated solution", "setting": "[3]; listed as Anhydrous 1", "value": "pH of saturated solution = 8.7"}]}, {"compound": "O[C@@](Cn1cnnn1)(c1ccc(F)cc1F)C(F)(F)c1ccc(-c2ccc(OCC(F)(F)F)cc2)cn1", "note": "[Compound 1 X-Hydrate]", "values": [{"measurement": "GVS sample hysteresis", "setting": "[1]; 0-90% RH, 25° C.", "value": "90% RH. No sample hysteresis"}, {"measurement": "GVS water uptake at 90% RH", "setting": "[1]; 25° C., listed as X-hydrate 1", "value": 0.59, "unit": "% w/w water uptake at"}, {"measurement": "XRPD post GVS", "setting": "[1]; after GVS experiment", "value": "No form change after GVS"}, {"measurement": "AUC0-8 h", "setting": "[2]; [6]", "value": 17600, "unit": "ngh/mL"}, {"measurement": "Cmax", "setting": "[2]; [6]", "value": 2520, "unit": "ng/mL"}, {"measurement": "Tmax", "setting": "[2]; [6]", "value": 5, "unit": "h"}, {"measurement": "XRPD stability post 2 weeks at 25° C. & 97% RH", "setting": "[4]; 25° C. & 97% RH", "value": "No change in crystalline form"}, {"measurement": "XRPD stability post 2 weeks at 40° C. & 75% RH", "setting": "[4]; 40° C. & 75% RH", "value": "No change in crystalline form"}, {"measurement": "solubility", "setting": "[3]", "value": "< 1", "unit": "µg/mL"}, {"measurement": "pH of saturated solution", "setting": "[3]; listed as X-hydrate 1", "value": "pH of saturated solution = 8.6"}]}]}
